Measured values from patent publication US20240336601A1 (Chulalongkorn University, priority 2020, published 2024).

Experiments:
[1] = molecular target: interaction between PD-1 and PD-L1 (Homo sapiens, UniProt Q9NZQ7); experiment: PD-1/PD-L1 protein-protein interaction assay (ALPHA); assay type: binding; settings: 2 nM His-tagged human PD-L1, 0.6 nM PD-1-Fc, AlphaScreen
[2] = molecular target: T1, PD-1/PD-L1 interaction (Homo sapiens, UniProt Q9NZQ7); experiment: PD-1/PD-L1 blockage cell-based bioassay (Jurkat NFAT luciferase / CHO-PDL1 co-culture); settings: Jurkat NFAT cells co-cultured with CHO-PDL1 cells, 6 h, luminescence
T1 construct: expressed in transfected cells
T1 sequence (Q9NZQ7 19-290): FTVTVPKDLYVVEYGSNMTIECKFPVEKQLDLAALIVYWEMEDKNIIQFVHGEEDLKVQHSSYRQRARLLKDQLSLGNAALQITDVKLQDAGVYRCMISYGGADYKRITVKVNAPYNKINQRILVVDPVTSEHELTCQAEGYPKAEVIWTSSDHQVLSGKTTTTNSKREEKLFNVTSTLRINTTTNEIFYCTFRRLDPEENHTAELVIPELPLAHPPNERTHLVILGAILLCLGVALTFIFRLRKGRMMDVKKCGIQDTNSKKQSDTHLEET

interaction between PD-1 and PD-L1, sequence (Q9NZQ7 19-238 limits assumed): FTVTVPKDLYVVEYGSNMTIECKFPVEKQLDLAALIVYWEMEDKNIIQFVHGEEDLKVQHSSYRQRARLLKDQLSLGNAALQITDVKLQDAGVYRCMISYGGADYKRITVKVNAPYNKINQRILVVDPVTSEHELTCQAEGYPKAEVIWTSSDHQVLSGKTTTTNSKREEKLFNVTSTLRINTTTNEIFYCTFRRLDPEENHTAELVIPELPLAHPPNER

| IC50 [1] [nM] | IC50 [2] [nM] | SMILES |
| --- | --- | --- |
| 1 to 10 | > 2000 | COc1cc(-n2ccc3c(-c4cccc5c4ccn5-c4cc(OC)c(CNC[C@@H]5CCC(=O)N5)c(OC)c4)cccc32)cc(OC)c1CNC[C@@H]1CCC(=O)N1 [Example 64, (5S,5′S)-5,5′-((((1H,1′H-[4,4′-biindole]-1,1′-diylbis(2,6-dimethoxy-4,1-phenylene))bis(methylene))bis(azanediyl))bis(methylene))bis(pyrrolidin-2-one)] |
| 1 to 10 | 201 to 2000 | COc1cc(-n2ccc3c(-c4cccc(-c5ccc(CN6CC(C)(O)C6)c(OC)n5)c4Cl)cccc32)cc(OC)c1CNC[C@@H]1CCC(=O)N1 [Example 35] |
| 10 to 100 | > 2000 | COc1cc(-n2ccc3c(-c4cccc(-c5ccc(CNCC6CNC6)c(OC)n5)c4Cl)cccc32)cc(OC)c1CNC[C@@H]1CCC(=O)N1 [Example 33] |
| 1 to 10 | 201 to 2000 | COc1cc(-n2ncc3c(-c4cccc(-c5ccc(CN6CC(C)(C(N)=O)C6)c(OC)n5)c4Cl)cccc32)cc(OC)c1CN1CC(C)(O)C1 [Example 104, 1-((6-(2-chloro-3-(1-(4-((3-hydroxy-3-methylazetidin-1-yl)methyl)-3,5-dimethoxyphenyl)-1H-indazol-4-yl)phenyl)-2-methoxypyridin-3-yl)methyl)-3-methylazetidine-3-carboxamide] |
| 1 to 10 | 201 to 2000 | COc1cc(-n2ncc3c(-c4cccc(-c5ccc(CN[C@H]6C[C@@H](O)C6)c(OC)n5)c4Cl)cccc32)cc(OC)c1CNCC1(C(N)=O)CC1 [Example 131, 1-(((4-(4-(2-chloro-3-(5-(((cis-3-hydroxycyclobutyl)amino)methyl)-6-methoxypyridin-2-yl)phenyl)-1H-indazol-1-yl)-2,6-dimethoxybenzyl)amino)methyl)cyclopropane-1-carboxamide] |
| < 1 | < 200 | COc1cc(-n2ncc3c(-c4cccc(-c5ccc(CN6CC7(CNC(=O)C7)C6)c(OC)n5)c4Cl)cccc32)cc(OC)c1CNCC(C)(C)C(N)=O [Example 107, 3-((4-(4-(2-chloro-3-(6-methoxy-5-((7-oxo-2,6-diazaspiro[3.4]octan-2-yl)methyl)pyridin-2-yl)phenyl)-1H-indazol-1-yl)-2,6-dimethoxybenzyl)amino)-2,2-dimethylpropanamide] |
| < 1 | < 200 | COc1cc(-c2cccc(-c3cccc4c3cnn4-c3cc(OC)c(CN4CC[C@@H](O)C4)c(OC)c3)c2Cl)cc(F)c1CN(C)C12CCC(C(=O)O)(CC1)CC2 [Example 164, (R)-4-(((2′-chloro-3-fluoro-β′-(1-(4-((3-hydroxypyrrolidin-1-yl)methyl)-3,5-dimethoxyphenyl)-1H-indazol-4-yl)-5-methoxy-[1,1′-biphenyl]-4-yl)methyl)(methyl)amino)bicyclo[2.2.2]octane-1-carboxylic acid] |
| 1 to 10 | 201 to 2000 | COc1cc(-n2ccc3c(-c4cccc(-c5cnc(CNC[C@@H]6CCC(=O)N6)c(OC)n5)c4Cl)cccc32)cc(OC)c1CNC[C@@H]1CCC(=O)N1 [Example 65, (S)-5-((((5-(2-chloro-3-(1-(3,5-dimethoxy-4-(((((S)-5-oxopyrrolidin-2-yl)methyl)amino)methyl)phenyl)-1H-indol-4-yl)phenyl)-3-methoxypyrazin-2-yl)methyl)amino)methyl)pyrrolidin-2-one] |
| 1 to 10 | > 2000 | COc1cc(-n2ccc3c(-c4cccc(-c5ccc(CNC[C@@H]6CCC(=O)N6)c(OC)n5)c4Cl)ccnc32)cc(OC)c1CN1CC(C)(C(=O)NC2CC2)C1 [Example 46] |
| 1 to 10 | < 200 | COc1cc(-n2ncc3c(-c4cccc(-c5ccc(CN6CC7(CNC(=O)C7)C6)c(OC)n5)c4Cl)cccc32)cc(OC)c1CN1CC[C@@H](O)C1 [Example 133, (R)-2-((6-(2-chloro-3-(1-(4-((3-hydroxypyrrolidin-1-yl)methyl)-3,5-dimethoxyphenyl)-1H-indazol-4-yl)phenyl)-2-methoxypyridin-3-yl)methyl)-2,6-diazaspiro[3.4]octan-7-one] |
| 1 to 10 | > 2000 | COc1cc(-n2ccc3c(-c4cccc(-c5ccc(CN6CC7(C6)CN(C(C)=O)C7)c(OC)n5)c4Cl)cccc32)cc(OC)c1CNC[C@@H]1CCC(=O)N1 [Example 32] |
| < 1 | 201 to 2000 | COc1cc(-n2ncc3c(-c4cccc(Nc5nc(C(F)F)nc6cc(CN7CC[C@@H](O)C7)cnc56)c4C)cccc32)cc(OC)c1CN1CCC(C(=O)O)CC1 [Example 163, (R)-1-(4-(4-(3-((2-(difluoromethyl)-7-((3-hydroxypyrrolidin-1-yl)methyl)pyrido[3,2-d]pyrimidin-4-yl)amino)-2-methylphenyl)-1H-indazol-1-yl)-2,6-dimethoxybenzyl)piperidine-4-carboxylic acid] |
| < 1 | < 200 | COc1cc(-n2ncc3c(-c4cccc(Nc5nc(C(F)F)nc6cc(CN7CC[C@@H](C(=O)O)C7)cnc56)c4C)cccc32)cc(OC)c1CN1CC[C@@H](O)C1 [Example 165, (R)-1-((2-(difluoromethyl)-4-((3-(1-(4-(((R)-3-hydroxypyrrolidin-1-yl)methyl)-3,5-dimethoxyphenyl)-1H-indazol-4-yl)-2-methylphenyl)amino)pyrido[3,2-d]pyrimidin-7-yl)methyl)pyrrolidine-3-carboxylic acid] |
| 1 to 10 | > 2000 | COc1cc(-n2ccc3c(-c4cccc(NC(=O)c5nc6c(s5)CN(C)CC6)c4C)cccc32)cc(OC)c1CNC[C@@H]1CCC(=O)N1 [Example 67, (S)—N-(3-(1-(3,5-dimethoxy-4-((((5-oxopyrrolidin-2-yl)methyl)amino)methyl)phenyl)-1H-indol-4-yl)-2-methylphenyl)-5-methyl-4,5,6,7-tetrahydrothiazolo[5,4-c]pyridine-2-carboxamide] |
| < 1 | < 200 | COc1cc(-n2ncc3c(-c4cccc(-c5ccc(CN6CC7(CNC(=O)C7)C6)c(OC)n5)c4Cl)cccc32)cc(OC)c1CN1CC(C)(O)C1 [Example 79, 2-((6-(2-chloro-3-(1-(4-((3-hydroxy-3-methylazetidin-1-yl)methyl)-3,5-dimethoxyphenyl)-1H-indazol-4-yl)phenyl)-2-methoxypyridin-3-yl)methyl)-2,6-diazaspiro[3.4]octan-7-one] |
| 1 to 10 | 201 to 2000 | COc1cc(-n2ncc3c(-c4cccc(-c5ccc(CN6CC(C(C)(C)O)C6)c(OC)n5)c4Cl)cccc32)cc(OC)c1CN1CC2(CNC(=O)C2)C1 [Example 138, 2-(4-(4-(2-chloro-3-(5-((3-(2-hydroxypropan-2-yl)azetidin-1-yl)methyl)-6-methoxypyridin-2-yl)phenyl)-1H-indazol-1-yl)-2,6-dimethoxybenzyl)-2,6-diazaspiro[3.4]octan-7-one] |
| 1 to 10 | > 2000 | COc1cc(-n2ccc3c(-c4cccc(-c5ccc(CN6CC(C)(C(=O)O)C6)c(OC)n5)c4Cl)ccnc32)cc(OC)c1CNC[C@@H]1CCC(=O)N1 [Example 70, (S)-1-((6-(2-chloro-3-(1-(3,5-dimethoxy-4-((((5-oxopyrrolidin-2-yl)methyl)amino)methyl)phenyl)-1H-pyrrolo[2,3-b]pyridin-4-yl)phenyl)-2-methoxypyridin-3-yl)methyl)-3-methylazetidine-3-carboxylic acid] |
| < 1 | < 200 | COc1cc(-n2ncc3c(-c4cccc(-c5ccc(CN6CC[C@@H](C(=O)O)C6)c(OC)n5)c4Cl)cccc32)cc(OC)c1CN1CC2(CNC(=O)C2)C1 [Example 130, (R)-1-((6-(2-chloro-3-(1-(3,5-dimethoxy-4-((7-oxo-2,6-diazaspiro[3.4]octan-2-yl)methyl)phenyl)-1H-indazol-4-yl)phenyl)-2-methoxypyridin-3-yl)methyl)pyrrolidine-3-carboxylic acid] |
| < 1 | 201 to 2000 | COc1cc(-n2ncc3c(-c4cccc(-c5ccc(CN6CC7(CNC(=O)C7)C6)c(OC)n5)c4Cl)cccc32)ncc1CNC[C@@H](C)O [Example 110, (R)-2-((6-(2-chloro-3-(1-(5-(((2-hydroxypropyl)amino)methyl)-4-methoxypyridin-2-yl)-1H-indazol-4-yl)phenyl)-2-methoxypyridin-3-yl)methyl)-2,6-diazaspiro[3.4]octan-7-one] |
| < 1 | < 200 | COc1cc(-n2ncc3c(-c4cccc(Nc5nc(C(F)F)nc6cc(CN7CC[C@@H](O)C7)cnc56)c4C)cccc32)cc(OC)c1CN1CC[C@@](C)(C(=O)O)C1 [Example 158, (R)-1-(4-(4-(3-((2-(difluoromethyl)-7-(((R)-3-hydroxypyrrolidin-1-yl)methyl)pyrido[3,2-d]pyrimidin-4-yl)amino)-2-methylphenyl)-1H-indazol-1-yl)-2,6-dimethoxybenzyl)-3-methylpyrrolidine-3-carboxylic acid] |
| 1 to 10 | > 2000 | COc1cc(-n2ccc3c(-c4cccc(-c5ccc(CN6CC[C@@H](O)C6)c(OC)n5)c4Cl)ccnc32)cc(OC)c1CNC[C@@H]1CCC(=O)N1 [Example 34] |
| 1 to 10 | > 2000 | COc1cc(-c2cn(C)c3c(-c4cccc(-c5ccc(CNC[C@@H]6CCC(=O)N6)c(OC)n5)c4Cl)cccc23)cc(OC)c1CNC[C@@H]1CCC(=O)N1 [Example 93, (S)-5-((((6-(2-chloro-3-(3-(3,5-dimethoxy-4-(((((S)-5-oxopyrrolidin-2-yl)methyl)amino)methyl)phenyl)-1-methyl-1H-indol-7-yl)phenyl)-2-methoxypyridin-3-yl)methyl)amino)methyl)pyrrolidin-2-one] |
| < 1 | < 200 | COc1cc(-n2ncc3c(-c4cccc(-c5ccc(CN6CC7(CCC(=O)N7)C6)c(OC)n5)c4Cl)cccc32)ncc1CNCCO [Example 116, 2-((6-(2-chloro-3-(1-(5-(((2-hydroxyethyl)amino)methyl)-4-methoxypyridin-2-yl)-1H-indazol-4-yl)phenyl)-2-methoxypyridin-3-yl)methyl)-2,5-diazaspiro[3.4]octan-6-one] |
